According to patent US8796327B2, “Method for inhibiting production of cytokines of T helper cell type II and/or inhibiting production of chemokines using brazilin” (China Medical University, priority 2010, dated 2014):

Columns and labels:
IL-5 mRNA = assay: Real-time PCR of IL-5 mRNA in EL-4 T lymphoma cells; format: cell-based, mouse; conditions: for Expression level of IL-5 mRNA: PMA + cAMP stimulated EL-4 cells, corrected to HPRT
Protocol: (§1) Then, at a density of 5×10^5 counts/ml, the T lymphoma cells were bred in a six-well culture dish, and at the 0th minute, brazilin of different concentrations (0.3, 1, 3, 10, or 30 micromole (μM)) was added into the cell culture solution at an amount of 1 μl/ml-cell culture solution. Then, the cells were put into the incubator to be cultured therein. 30 minutes later, at an amount of 1 μl/ml-cell culture solution, 5 μg/ml PMA and cAMP at a 250 mmol concentration were added to the cell culture solution to stimulate the expression of IL-4 and IL-5 of the T lymphoma cells. During the process of cell culture, the trypan blue exclusion assay was employed to observe effect of the brazilin on the cell viability, results of which are shown in Table 1 and FIG. 1.
(§2) Expression of mRNA of IL-4, IL-5, GATA-3, c-maf, and T-bet were analyzed in a quantitative way through real-time polymerase chain reaction (PCR) by extracting RNA in the cells obtained in Experiment A (using an RNA purifying kit), converting the RNA into cDNA through reverse transcription, and using an ABI PRISM 7700 sequence detector (Applied Biosystems, Foster City, Calif., America) to analyze the gene expression of mRNA. The PCR was carried out under the following conditions: 50° C., 2 minutes; 95° C., 10 minutes; 60° C., 1 minute; then repeating this cycle forty times. A threshold cycle (or referred to as Ct) was used to represent the expression level of each gene, and an expression level of hypoxanthine-guanine phosphoribosy transferase (HPRT) genes of the endogenous control group was used for correction of the expression level of mRNA.

eotaxin = assay: ELISA of eotaxin in bronochial alveolar lavage fluid, mice with asthma (OVA); format: in vivo, BALB/c mice; conditions: for Eotaxin concentration (pico-gram/ml): i.p. or i.t., OVA-sensitized BALB/c mice
Protocol: (§3) In Example 2, mice with asthma were used to conduct in vivo experiments, and ovalbumin (OVA) was used as an allergen.
The mice were sensitized (or challenged) according to the steps shown in FIG. 9 (see Lee et al., Lentiviral-mediated GATA-3 RNAi decreases allergic airway inflammation and hyperresponsiveness. Molecular Therapy, 2008; 16:60-65, which is incorporated herein in its entirety by reference). First, 50 μg OVA (using 2 mg alumina (Alum, Alumlmuject, Pierce Chemical, Rockford, Ill., USA) as an adjuvant) was injected into six to eight-week-old BALB/c female mice (from National Laboratory Animal Center, Taiwan) by intraperitoneal injection (i.p.). At 0th, 14th, and 28th day, the mice were injected with OVA at the same dosage. Before the administration of OVA at the forty-first and the forty-second days, different dosages of brazilin (high dose: 430 μg/mice; low dose: 43 μg/mice) were administrated to the mice by intraperitoneal injection (i.p.) or intratracheal instillation (i.t.). During the fortieth to the forty-second days, 100 μg OVA was dissolved in 40 μl PBS, and was administrated to the mice by intranasal instillation (i.n.) (once everyday, for three days). At the forty-third day, airway hyperresponsiveness of the mice was observed. […]
In Experiment D, after 24 hours from the last administration of OVA into the noses of the mice, the mice were sacrificed, and the blood was collected from the orbital cavities of the mice. […] Cells obtained after the centrifugation were re-suspended in a 1 ml HBSS buffer solution, and the total cell number was counted with a hemocytometer.
The bronochial alveolar lavage fluid collected in Experiment E was centrifuged at 4° C. and with a revolution speed of 400 g for 10 minutes. After the supernatant was collected, the expression of eotaxin, IL-4, IL-5, and IFN-γ was analyzed with an ELISA kit (R&D Systems, Inc., USA). […]

IL-4 mRNA = assay: Real-time PCR of IL-4 mRNA in EL-4 T lymphoma cells; format: cell-based, mouse; conditions: for Expression level of IL-4 mRNA: PMA + cAMP stimulated EL-4 cells, corrected to HPRT
Protocol: as §1, §2

T-bet mRNA = assay: Real-time PCR of T-bet mRNA in EL-4 T lymphoma cells; format: cell-based, mouse; conditions: for Expression level of T-bet mRNA: PMA + cAMP stimulated EL-4 cells, corrected to HPRT
Protocol: as §1, §2

mice with asthma = assay: Airway (pulmonary) resistance determination, invasive body plethysmography with methacholine; format: in vivo, BALB/c mice; conditions: for pulmonary resistance Rrs (cm H2O/ml): OVA-sensitized BALB/c mice
Protocol: as §3
The mice were sensitized (or challenged) according to the steps shown in FIG. 9 (see Lee et al., Lentiviral-mediated GATA-3 RNAi decreases allergic airway inflammation and hyperresponsiveness. Molecular Therapy, 2008; 16:60-65, which is incorporated herein in its entirety by reference). First, 50 μg OVA (using 2 mg alumina (Alum, Alumlmuject, Pierce Chemical, Rockford, Ill., USA) as an adjuvant) was injected into six to eight-week-old BALB/c female mice (from National Laboratory Animal Center, Taiwan) by intraperitoneal injection (i.p.). At 0th, 14th, and 28th day, the mice were injected with OVA at the same dosage. Before the administration of OVA at the forty-first and the forty-second days, different dosages of brazilin (high dose: 430 μg/mice; low dose: 43 μg/mice) were administrated to the mice by intraperitoneal injection (i.p.) or intratracheal instillation (i.t.). During the fortieth to the forty-second days, 100 μg OVA was dissolved in 40 μl PBS, and was administrated to the mice by intranasal instillation (i.n.) (once everyday, for three days). At the forty-third day, airway hyperresponsiveness of the mice was observed. At the forty-sixth day, the mice were sacrificed and used to conduct the following Experiments E to G During the above procedure, it was observed if any toxicity response arises after the administration of brazilin to the mice. In this experiment, the mice administrated with OVA were used as a positive control, and the mice not administrated with OVA were used as a negative control.
Airway (pulmonary) resistance determination was carried out by conducting invasive body plethysmography according to the Glaab's method (see Glaab et al., Repetitive measurements of pulmonary mechanics to inhaled cholinergic challenge in spontaneously breathing mice. J Appl Physiol, 2004; 97:1104-1111, which is incorporated herein in its entirety by reference). In this method, the increase of pulmonary resistance of mice administrated with methacholine is observed.
First, BALB/c mice were anesthetized with 70 to 90 mg/kg-body weight of pentobarbital sodium (Sigma), and the trachea of the mice were cut to generate a bore, and the mice were subjected to external ventilation (150 breaths/minute) with a ventilator (Harvard Rodent Ventilator, model 683, Southnatick, Mass., USA) controlled by a computer to maintain the tidal volume at 0.3 ml and the terminal expiring positive pressure at 3 to 4 cm-H2O. A PE-50 pipeline was inserted into the gullets and reached to the chest position of the mice, and the pipeline was connected to a pressure transducer (LDS GOULD, Valley View, Ohio, USA), and the pressure, air flow rate, and the variation of air capacity in the lungs of the mice were recorded. Software (Model PNM-PCT100W, LDS PONEMAH Physiology Platform, LDS GOULD) was used to analyze the airway resistance. An atomizer was used to generate methacholine spray, which was then administrated to the mice via the ventilator. The data was obtained by deducting the pulmonary resistance (0.45 cm H2O.s.ml^−1) gained by the pipeline inserted into the trachea of the mice, wherein pulmonary resistance RL ratio=RL after methacholine nebulization/RL after PBS nebulization.

## Oc1ccc2c(c1)OC[C@]1(O)Cc3cc(O)c(O)cc3[C@H]21 [brazilin]
IL-5 mRNA; EL-4 cells, result in words
  expression of mRNA of IL-5: inhibited
IL-5 mRNA; brazilin 0.3 μM
  Expression level of IL-5 mRNA: 1397 ± 172.2
IL-5 mRNA; brazilin 1 μM
  Expression level of IL-5 mRNA: 1225 ± 47.23
IL-5 mRNA; brazilin 3 μM
  Expression level of IL-5 mRNA: 1009 ± 77.66
IL-5 mRNA; brazilin 10 μM
  Expression level of IL-5 mRNA: 926.2 ± 40.70
IL-5 mRNA; brazilin 30 μM
  Expression level of IL-5 mRNA: 594.8 ± 252.9
eotaxin; BALB/c mice, result in words
  production of β-chemokine, eotaxin: inhibited
eotaxin; High dose (430 μg/mice)
  Eotaxin concentration (pico-gram/ml): 12.61 ± 1.334 pico-gram/ml
eotaxin; Low dose (43 μg/mice)
  Eotaxin concentration (pico-gram/ml): 18.64 ± 3.784 pico-gram/ml
IL-4 mRNA; EL-4 cells, result in words
  expression of mRNA of IL-4: inhibited
IL-4 mRNA; brazilin 0.3 μM
  Expression level of IL-4 mRNA: 2.228 ± 0.4786
IL-4 mRNA; brazilin 1 μM
  Expression level of IL-4 mRNA: 2.028 ± 0.1794
IL-4 mRNA; brazilin 3 μM
  Expression level of IL-4 mRNA: 2.136 ± 0.2671
IL-4 mRNA; brazilin 10 μM
  Expression level of IL-4 mRNA: 1.835 ± 0.2712
IL-4 mRNA; brazilin 30 μM
  Expression level of IL-4 mRNA: 1.478 ± 0.1441
T-bet mRNA; EL-4 cells, result in words
  expression of mRNA of transcription factor T-bet: did not inhibit
T-bet mRNA; brazilin 0.3 μM
  Expression level of T-bet mRNA: 1.073 ± 0.1762
T-bet mRNA; brazilin 1 μM
  Expression level of T-bet mRNA: 1.036 ± 0.1666
T-bet mRNA; brazilin 3 μM
  Expression level of T-bet mRNA: 1.052 ± 0.09226
T-bet mRNA; brazilin 10 μM
  Expression level of T-bet mRNA: 1.068 ± 0.1171
T-bet mRNA; brazilin 30 μM
  Expression level of T-bet mRNA: 1.054 ± 0.05147
Mice with asthma; methacholine 3.125 mg/ml, High dose (430 μg/mice)
  pulmonary resistance Rrs (cm H2O/ml): 2.535 ± 0.1251 cm H2O/ml
Mice with asthma; methacholine 3.125 mg/ml, Low dose (43 μg/mice)
  pulmonary resistance Rrs (cm H2O/ml): 2.237 ± 0.1567 cm H2O/ml
Mice with asthma; methacholine 6.25 mg/ml, High dose (430 μg/mice)
  pulmonary resistance Rrs (cm H2O/ml): 2.680 ± 0.1676 cm H2O/ml
Mice with asthma; methacholine 6.25 mg/ml, Low dose (43 μg/mice)
  pulmonary resistance Rrs (cm H2O/ml): 2.206 ± 0.0665 cm H2O/ml
Mice with asthma; methacholine 12.5 mg/ml, High dose (430 μg/mice)
  pulmonary resistance Rrs (cm H2O/ml): 3.247 ± 0.1368 cm H2O/ml
Mice with asthma; methacholine 12.5 mg/ml, Low dose (43 μg/mice)
  pulmonary resistance Rrs (cm H2O/ml): 2.432 ± 0.1259 cm H2O/ml
Mice with asthma; methacholine 25 mg/ml, High dose (430 μg/mice)
  pulmonary resistance Rrs (cm H2O/ml): 3.691 ± 0.1542 cm H2O/ml
Mice with asthma; methacholine 25 mg/ml, Low dose (43 μg/mice)
  pulmonary resistance Rrs (cm H2O/ml): 2.869 ± 0.1831 cm H2O/ml
Mice with asthma; methacholine challenge, BALB/c mice, result in words
  airway resistance of the mice: reduced
